Earlier results in US20250000878A1 (priority 2014, published 2025).

How the values were obtained:
[1] = in vivo
beta amyloid = conditions: AD transgenic mice
[2] = test system: patients with mild to moderate VaD; conditions: 100 mcg twice daily for 12 weeks
[3] = 0.2 mg pure huperzine A orally
[4] = test system: patients with possible or probable AD; conditions: 0.1-0.2 mg twice daily, active group

Cn1c(=O)c2c(ncn2C)n(C)c1=O [Caffeine]
half life [1]: 4 to 6 h
time to peak blood levels [1]: within one hour
reduction of beta amyloid deposition, entorhinal cortex (beta amyloid): 46%
reduction of beta amyloid deposition, hippocampus (beta amyloid): 40%

C[C@]12CC[C@H](O)CC1=CC[C@@H]1[C@@H]2CC[C@]2(C)C(=O)CC[C@@H]12 [DHEA, dehydroepiandrosterone]
insulin resistance (elderly men and women; 50 mg per day, one year): significant improvement
reduction of visceral fat measured by MRI (elderly men and women; 50 mg per day, one year, mean age 70 years): about 10%
circulating cytokines TNF alpha and IL-6 (elderly men and women; vs placebo controls): significant decrease

C/C=C1\[C@H]2C=C(C)C[C@]1(N)c1ccc(=O)[nH]c1C2 [Huperzine A]
cognitive function [2]: significantly improved
terminal half life [3]: approximately 6 hours
proportion of patients with a four point improvement on the ADAS-cog [4]: 56%
